Measurements as given in patent publication US8163776B2, “Method of immunomodulation using thione-forming disulfides” (Grassetti family Trust, priority 2001, dated 2012).
Where “and” joins values, the source holds several entries; their conditions need not be identical. Identical values can stand only once.

Columns and labels:
[1] = tested on: spleen T cells, B cells and NK cells; experiment: Immunophenotyping of splenocytes by flow cytometry; assay type: in vivo, BALB/c mice
Description: In general, the immunophenotyping technique consisted briefly of isolating cells from the peripheral blood or an organ (spleen or thymus), labeling them with a panel of antibodies specific for certain antigens of the membrane, and allowing to quantify the different populations. Analysis was performed by flow cytometry since antibodies were conjugated with a fluorochrome (Longbardi, Givan, A., 1994, Flow cytometry. First principles, Wiley-Liss Inc. New York.).
To immunophenotype immune cells, splenocytes were diluted to a concentration of […]. A total of 1×10^6 cells were distributed in a V-shape 96 well plate. A total of 7 wells were necessary for each sample. Plates were centrifuged 5 minutes at 1200 rpm. Supernatant was discarded and pellet were vortexed. Monoclonal antibodies were distributed in each wells according to the following set up:
The antibodies used are commercially available from Becton Dickinson (San Jose, Calif.). The cells were incubated with the antibodies for 30 minutes on ice, washed three times with D-PBS+1% BSA, spun at 1200 rpm for 5 minutes using a multichannel pipette, suspended in 1 ml of paraformaldehyde 2% (v/v), and transferred into flow cytometry tubes. Samples were analyzed using EPICS XL from Beckman Coulter flow cytometer. Results were expressed as percentage of the population expressing the specific surface antigen. Live population of cells were gated upon using forward scatter (FS) vs. side scatter (SS) to distinguish live cells from dead cells. A total of 10,000 gated cells were counted for statistical relevance. The FL1 band pass filter (set at 525 nm) was used to detect fluoroscein isothiocyanate (FITC) fluorescence. The FL2 band pass filter (set at 575 nm) was used to detect phycoerythrin (PE) fluorescence. The cursors are set accordingly to delineate the positive region. This region should be relative to 1% of the unstained control (cell control). Results are expressed as % of positive population expressing the specific surface antigens. Student's T test was performed between the control group and the treated group. The p value was calculated for statistical significance.

[2] = Weight gain of mice on CPDS diet; assay type: in vivo, BALB/c mice
Description: To prepare a CPDS diet, a total of 3 kilos of Standard Purina chow was reduced to powder using a grinder. About 12 g of CPDS was added to the powder and thoroughly mixed, re-hydrated and reconstituted into pellets. Pellets were allowed to dry overnight.
Male adult BALB/c mice were weighed and randomly divided to form the experimental groups. Mice were allowed to acclimatized 3 days prior to the beginning of the experiments. Mice from the control normal diet groups were fed ad libitum with standard Purina mouse chow. Mice from the CPDS treated groups were fed ad libitum with the CPDS preparation. The amount of food given was weighted and recorded to allow the evaluation of the CPDS dosage.
The weight gained by each mice was evaluated weekly and prior to sacrifice. Mice were sacrificed by overexposure to CO2. The spleen from each mouse was collected under sterile conditions, transferred into HBSS buffered solution and kept on ice until used for other studies disclosed. Experiments were performed on the same day.

[3] = 30 days on CPDS diet vs group 1
[4] = Group 2, 30 days on CPDS diet, Mean ± S.D.
[5] = Group 2, 30 days on CPDS diet, individual mice
[6] = Group 6, 6 days on CPDS diet, Mean ± S.D.
[7] = Group 6, 6 days on CPDS diet, individual mice
[8] = Group 2 (30 days CPDS diet), group Mean ± S.D.
[9] = Group 2 (30 days CPDS diet), individual mice
[10] = Group 4 (45 days CPDS diet), group Mean ± S.D.
[11] = Group 4 (45 days CPDS diet), individual mice
[12] = Group 6 (6 days CPDS diet), group Mean ± S.D.
[13] = Group 6 (6 days CPDS diet), individual mice

With O=C(O)c1ccc(SSc2ccc(C(=O)O)cn2)nc1 [CPDS, 6,6′-dithiodinicotinic acid] the “B cells, variation (%)” value ([1]; 6 days on CPDS diet vs Group 5) was −1.0%, the “CD4+, variation (%)” value ([1]; 6 days on CPDS diet vs Group 5) was −8.5% and the “CD8+, variation (%)” value ([1]; 6 days on CPDS diet vs Group 5) was −6.8%. For the same compound, the “NK cells, variation (%)” value ([1]; 6 days on CPDS diet vs Group 5) was 43.5%, the “Ratio CD4/CD8, variation (%)” value ([1]; 6 days on CPDS diet vs Group 5) was −1.8% and the “Total T cells, variation (%)” value ([1]; 6 days on CPDS diet vs Group 5) was −8.0%. For the same compound, the “Immunophenotyping: B cells, effect of CPDS diet” value ([1]; 6 days, n=3) was “no significant effect”, the “Immunophenotyping: Ratio CD4/CD8, effect of CPDS diet” value ([1]; 6 days, n=3) was “No effect” and the “Immunophenotyping: T CD4+, effect of CPDS diet” value ([1]; 6 days, n=3) was “No effect”. For the same compound, the “Immunophenotyping: T CD8+, effect of CPDS diet” value ([1]; 6 days, n=3) was “No effect”, the “Immunophenotyping: Total T cells, effect of CPDS diet” value ([1]; 6 days, n=3) was “no significant effect” and the “Immunophenotyping: NK cells, effect of CPDS diet” value ([1]; 6 days, n=3, arrow image = increase) was “tendency toward an increase”. The “B cells, variation (%)” value [1, 3] was −19.9%, the “CD4+, variation (%)” value [1, 3] was −3.9% and the “CD8+, variation (%)” value [1, 3] was −11.0%. The “NK cells, variation (%)” value [1, 3] was 69.4%, the “Ratio CD4/CD8, variation (%)” value [1, 3] was 7.7% and the “Total T cells, variation (%)” value [1, 3] was −1.2%. For the same compound, the “Immunophenotyping: T CD4+, effect of CPDS diet” value ([1]; 30 days, n=8) was “No effect”, the “Immunophenotyping: Total T cells, effect of CPDS diet” value ([1]; 30 days, n=8) was “No effect” and the “Immunophenotyping: T CD8+, effect of CPDS diet” value ([1]; 30 days, n=8, arrow image = decrease) was “tendency to decrease”. The “Immunophenotyping: Ratio CD4/CD8, effect of CPDS diet” value ([1]; 30 days, n=8, arrow image = increase) was “tendency”, the “B cells (%)” value [1, 4] was 23.4 ± 2.0% and the “CD4+ (%)” value [1, 4] was 23.6 ± 2.3%. The “CD8+ (%)” value [1, 4] was 9.6 ± 1.2%, the “NK cells (%)” value [1, 4] was 6.9 ± 4.9% and the “Ratio CD4/CD8” value [1, 4] was 2.49 ± 0.26. The “Total T cells (%)” value [1, 4] was 38.4 ± 2.9%, the “B cells (%)” value [1, 5] was 24.0% and 25.9% and 25.0% and 21.5% and 23.8% and 22.3% and 24.8% and 20.1% and the “CD4+ (%)” value [1, 5] was 21.7% (2×) and 24.0% and 28.3% and 25.7% and 23.2% and 22.2% and 22.1%. For the same compound, the “CD8+ (%)” value [1, 5] was 8.5% and 9.58% and 10.2% and 11.5% and 9.66% and 7.92% and 8.54% and 10.5%, the “NK cells (%)” value [1, 5] was 16.8% and 4.8% (2×) and 11.9% and 3.72% and 2.6% and 5.56% and 4.76% and the “Ratio CD4/CD8” value [1, 5] was 2.55 and 2.27 and 2.35 and 2.46 and 2.66 and 2.93 and 2.60 and 2.1. For the same compound, the “Total T cells (%)” value [1, 5] was 35.8% and 36.8% and 39.6% and 44.6% and 39.8% and 37.5% and 36.0% and 37.4%, the “B cells (%)” value [1, 6] was 50.3 ± 0.5% and the “CD4+ (%)” value [1, 6] was 25.8 ± 2.3%. For the same compound, the “CD8+ (%)” value [1, 6] was 13.6 ± 0.9%, the “NK cells (%)” value [1, 6] was 11.9 ± 2.7% and the “Ratio CD4/CD8” value [1, 6] was 1.90 ± 0.06. The “Total T cells (%)” value [1, 6] was 41.4 ± 2.5%, the “B cells (%)” value [1, 7] was 49.8% and 50.7% and 50.3% and the “CD4+ (%)” value [1, 7] was 26.4% and 23.3% and 27.8%. For the same compound, the “CD8+ (%)” value [1, 7] was 14.0% and 12.6% and 14.2%, the “NK cells (%)” value [1, 7] was 9.7% and 14.1% and 9.1% and the “Ratio CD4/CD8” value [1, 7] was 1.89 and 1.85 and 1.96. For the same compound, the “Total T cells (%)” value [1, 7] was 42.8% and 38.6% and 42.9%, the “Animal weight, Day 0” value [2, 8] was 14.87 ± 1.18 g and the “Animal weight, Day 6” value [2, 8] was 17.89 ± 1.2 g. For the same compound, the “Animal weight, Day 14” value [2, 8] was 19.36 ± 0.9 g, the “Animal weight, Day 21” value [2, 8] was 20.50 ± 0.9 g and the “Animal weight, Day 28” value [2, 8] was 22.04 ± 1.0 g. The “Animal weight, Day 0” value [2, 9] was 15.87 g and 15.18 g and 12.76 g and 15.67 g and 15.69 g and 15.29 g and 15.25 g and 13.28 g, the “Animal weight, Day 6” value [2, 9] was 18.64 g and 19.84 g and 15.20 g and 18.31 g and 18.66 g and 18.54 g and 17.98 g and 16.92 g and the “Animal weight, Day 14” value [2, 9] was 19.66 g and 20.46 g and 17.47 g and 19.96 g and 19.78 g and 19.09 g and 19.84 g and 18.65 g. For the same compound, the “Animal weight, Day 21” value [2, 9] was 20.10 g and 21.36 g (2×) and 18.72 g and 21.20 g and 20.58 g and 20.79 g and 19.87 g, the “Animal weight, Day 28” value [2, 9] was 21.96 g and 22.76 g and 19.99 g and 22.98 g and 22.80 g and 22.31 g and 22.57 g and 20.94 g and the “Animal weight, Day 0” value [2, 10] was 14.57 ± 0.8 g. For the same compound, the “Animal weight, Day 6” value [2, 10] was 17.74 ± 1.0 g, the “Animal weight, Day 14” value [2, 10] was 18.92 ± 1.1 g and the “Animal weight, Day 21” value [2, 10] was 19.86 ± 1.1 g. For the same compound, the “Animal weight, Day 28” value [2, 10] was 21.60 ± 1.2 g, the “Animal weight, Day 35” value [2, 10] was 22.19 ± 1.1 g and the “Animal weight, Day 45” value [2, 10] was 22.78 ± 1.1 g. The “Animal weight, Day 0” value [2, 11] was 13.58 g and 16.07 g and 14.28 g and 13.75 g and 14.89 g and 15.10 g and 13.67 g and 15.20 g, the “Animal weight, Day 6” value [2, 11] was 17.25 g and 18.57 g and 17.03 g and 16.46 g and 17.79 g and 18.38 g and 16.98 g and 19.46 g and the “Animal weight, Day 14” value [2, 11] was 18.57 g (2×) and 20.58 g and 18.25 g and 17.66 g and 18.83 g and 18.02 g and 20.86 g. The “Animal weight, Day 21” value [2, 11] was 19.72 g and 21.59 g and 19.22 g and 18.38 g and 19.40 g and 19.35 g and 19.45 g and 21.74 g, the “Animal weight, Day 28” value [2, 11] was 21.40 g (2×) and 23.72 g and 20.35 g and 20.18 g and 21.41 g and 21.14 g and 23.19 g and the “Animal weight, Day 35” value [2, 11] was 21.82 g and 24.00 g and 20.91 g and 20.95 g and 22.47 g and 21.39 g and 22.28 g and 23.68 g. The “Animal weight, Day 45” value [2, 11] was 22.71 g and 24.66 g and 20.96 g and 21.78 g and 23.15 g and 22.10 g and 23.09 g and 23.80 g, the “Animal weight, Day 0” value [2, 12] was 15.15 ± 1.1 g and the “Animal weight, Day 6” value [2, 12] was 18.40 ± 0.7 g. The “Animal weight, Day 0” value [2, 13] was 13.90 g and 16.04 g and 15.50 g, the “Animal weight, Day 6” value [2, 13] was 17.60 g and 19.18 g and 18.43 g and the “Course of animal weight (in words)” value ([2]; group fed CPDS diet for 45 days, food intake constant) was “stabilized after day 35”. The “Weight gain vs group on normal Purina chow (in words)” value ([2]; group fed CPDS for 45 days, p=0.01432) was “statistically significant lower weight gain” and the “Weight gain (in words)” value ([2]; groups fed CPDS diet for 6 and 30 days) was “constant and normal”.
